Test system: Aspergillus fumigatus AF210
Assay: Checkerboard titration, fractional inhibitory concentration (FIC), RPMI media
Assay type: cell-based
Settings: compound A in combination with caspofungin as compound B
Experimental: In the checkerboard titration doubling dilutions of compound A (e.g. an antifungal pyrrole compound as defined earlier) are prepared in every row across a microtitre plate and doubling dilutions of compound B (e.g. a second antifungal agent as defined earlier) are prepared in every column down a microtitre plate. The activity of the two compounds in combination can be compared with the activity of each compound alone. In such experiments a narrow range of dilutions can be tested for each compound around the minimum inhibitory concentration (MIC).
As an example, a stock solution of compound A (e.g. 5 mg/ml) can be prepared in a suitable solvent such as DMSO. A stock solution of compound B (e.g. caspofungin) is also prepared (e.g. 2 mg/ml). The stock solution of compound A is diluted (e.g. at a concentration of 1:2000 in water) to 2.5 μg/ml. […]
To determine the combined effect of the compounds the Fractional inhibitory concentration FIC is determined, where FIC is defined as: FIC=FICA+FICB=CA^comb/MICA^alone+CB^comb/MICB^alone where MICA^alone and MICB^alone are the MICs of compounds A and B when acting alone and CA^comb and CB^comb are concentrations of compounds A and B at the isoeffective combinations, respectively. […]

## Cc1cc(C)nc(N2CCN(c3ccc(NC(=O)C(=O)c4c(-c5ccccc5)cc(C)n4C)cc3)CC2)c1 [Example 1, 2-(1,5-Dimethyl-3-phenyl-1H-pyrrol-2-yl)-N-{4-[4-(4,6-dimethyl-pyridin-2-yl)-piperazin-1-yl]-phenyl}-2-oxo-acetamide]
  FIC (fractional inhibitory concentration): 0.67

From patent publication US8993574B2, “Pyrrole antifungal agents” (F2G Ltd, priority 2008, dated 2015)
